Source: patent publication US9963456B2, “Pyrrolopyrimidine compound or salt thereof and compositions containing the pyrrolopyrimidine compound or salt thereof” (TAIHO PHARMACEUTICAL CO., LTD., priority 2014, dated 2018)

Target: NAE (heterodimer of APPBP1 and UBA3) (Homo sapiens (Human), UniProt Q8TBC4)
Experiment: Nedd8 conjugation inhibitory activity (AlphaScreen assay)
Type: biochemical
Conditions: purified NAE, GST-UBC12, Biotin-Nedd8, ATP

Sequence of NAE (heterodimer of APPBP1 and UBA3) (Q8TBC4 whole entry): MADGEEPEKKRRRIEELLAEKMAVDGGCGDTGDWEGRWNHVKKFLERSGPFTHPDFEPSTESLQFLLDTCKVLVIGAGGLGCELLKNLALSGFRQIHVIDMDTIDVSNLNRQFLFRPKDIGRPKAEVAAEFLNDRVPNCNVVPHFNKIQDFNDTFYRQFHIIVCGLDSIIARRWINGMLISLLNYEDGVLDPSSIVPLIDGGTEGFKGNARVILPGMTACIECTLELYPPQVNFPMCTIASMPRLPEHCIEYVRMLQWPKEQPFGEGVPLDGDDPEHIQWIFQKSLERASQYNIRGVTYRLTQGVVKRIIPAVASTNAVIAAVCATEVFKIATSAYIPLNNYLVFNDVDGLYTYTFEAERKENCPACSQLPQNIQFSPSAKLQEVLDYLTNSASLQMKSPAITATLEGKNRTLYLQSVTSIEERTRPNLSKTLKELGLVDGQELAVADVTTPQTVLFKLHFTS
Sequence of NAE (heterodimer of APPBP1 and UBA3) (Q13564 whole entry partner): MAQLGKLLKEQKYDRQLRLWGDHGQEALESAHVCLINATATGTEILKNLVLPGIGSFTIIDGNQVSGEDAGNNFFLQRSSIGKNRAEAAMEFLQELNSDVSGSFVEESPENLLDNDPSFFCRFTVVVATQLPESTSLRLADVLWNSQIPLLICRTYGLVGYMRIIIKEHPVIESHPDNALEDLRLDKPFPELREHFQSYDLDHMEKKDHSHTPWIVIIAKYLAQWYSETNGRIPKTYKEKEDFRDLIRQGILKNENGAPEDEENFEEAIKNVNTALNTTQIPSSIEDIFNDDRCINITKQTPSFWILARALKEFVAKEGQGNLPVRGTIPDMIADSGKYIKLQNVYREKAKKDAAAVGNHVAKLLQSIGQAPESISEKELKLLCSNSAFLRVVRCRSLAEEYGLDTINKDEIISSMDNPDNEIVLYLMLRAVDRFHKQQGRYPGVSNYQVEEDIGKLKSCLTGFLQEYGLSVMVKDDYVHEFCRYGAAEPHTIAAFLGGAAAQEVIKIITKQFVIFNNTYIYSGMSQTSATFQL

Row | Compound | IC50 [µM]
1 | Nc1ncnc2c1c(C#Cc1c(F)cc(OCn3nccn3)cc1F)cn2[C@@H]1O[C@H](CNS(N)(=O)=O)[C@@H](O)[C@H]1O [Example 67, 4-Amino-5-[2-[2,6-difluoro-4-(triazol-2-ylmethoxy)phenyl]ethynyl]-7-[(2R,3R,4S,5R)-3,4-dihydroxy-5-[(sulfamoylamino)methyl]tetrahydrofuran-2-yl]pyrrolo[2,3-d]pyrimidine] | 0.0085
2 | Nc1ncnc2c1c(C#Cc1c(F)ccnc1F)cn2[C@@H]1O[C@H](CNS(N)(=O)=O)[C@@H](O)[C@H]1O [Example 69, 4-Amino-5-[2-(2,4-difluoro-3-pyridyl)ethynyl]-7-[(2R,3R,4S,5R)-3,4-dihydroxy-5-[(sulfamoylamino)methyl]tetrahydrofuran-2-yl]pyrrolo[2,3-d]pyrimidine] | 0.015
3 | CCS(=O)(=O)c1cc(N2CCCC2)cc(F)c1C#Cc1cn([C@@H]2O[C@H](CNS(N)(=O)=O)[C@@H](O)[C@H]2O)c2ncnc(N)c12 [Example 70, 4-Amino-7-[(2R,3R,4S,5R)-3,4-dihydroxy-5-[(sulfamoylamino)methyl]tetrahydrofuran-2-yl]-5-[2-(2-ethylsulfonyl-6-fluoro-4-pyrrolidin-1-yl-phenyl)ethynyl]pyrrolo[2,3-d]pyrimidine] | 0.013
4 | COc1cncc(F)c1C#Cc1cn([C@@H]2O[C@H](CNS(N)(=O)=O)[C@@H](O)[C@H]2O)c2ncnc(N)c12 [Example 71, 4-Amino-7-[(2R,3R,4S,5R)-3,4-dihydroxy-5-[(sulfamoylamino)methyl]tetrahydrofuran-2-yl]-5-[2-(3-fluoro-5-methoxy-4-pyridyl)ethynyl]pyrrolo[2,3-d]pyrimidine] | 0.014
5 | CCS(=O)(=O)c1cc(N2CC[C@@H](O)C2)cc(F)c1C#Cc1cn([C@@H]2O[C@H](CNS(N)(=O)=O)[C@@H](O)[C@H]2O)c2ncnc(N)c12 [Example 72, 4-Amino-7-[(2R,3R,4S,5R)-3,4-dihydroxy-5-[(sulfamoylamino)methyl]tetrahydrofuran-2-yl]-5-[2-[2-ethylsulfonyl-6-fluoro-4-[(3R)-3-hydroxypyrrolidin-1-yl]phenyl]ethynyl]pyrrolo[2,3-d]pyrimidine] | 0.0044
6 | Nc1ncnc2c1c(C#Cc1ncc(OCc3ccccc3)cn1)cn2[C@@H]1O[C@H](CNS(N)(=O)=O)[C@@H](O)[C@H]1O [Example 76, 4-Amino-5-[2-(5-benzyloxypyrimidin-2-yl)ethynyl]-7-[(2R,3R,4S,5R)-3,4-dihydroxy-5-[(sulfamoylamino)methyl]tetrahydrofuran-2-yl]pyrrolo[2,3-d]pyrimidine] | 0.0051
7 | NC(=O)c1cccc(F)c1C#Cc1cn([C@@H]2O[C@H](CNS(N)(=O)=O)[C@@H](O)[C@H]2O)c2ncnc(N)c12 [Example 79, 2-[2-[4-Amino-7-[(2R,3R,4S,5R)-3,4-dihydroxy-5-[(sulfamoylamino)methyl]tetrahydrofuran-2-yl]pyrrolo[2,3-d]pyrimidin-5-yl]ethynyl]-3-fluorobenzamide] | 0.0032
8 | COc1ncc(F)c(C#Cc2cn([C@@H]3O[C@H](CNS(N)(=O)=O)[C@@H](O)[C@H]3O)c3ncnc(N)c23)c1F [Example 80, 4-Amino-5-[2-(3,5-difluoro-2-methoxy-4-pyridyl)ethynyl]-7-[(2R,3R,4S,5R)-3,4-dihydroxy-5-[(sulfamoylamino)methyl]tetrahydrofuran-2-yl]pyrrolo[2,3-d]pyrimidine] | 0.014
9 | COc1cnc(OC)c(F)c1C#Cc1cn([C@@H]2O[C@H](CNS(N)(=O)=O)[C@@H](O)[C@H]2O)c2ncnc(N)c12 [Example 81, 4-Amino-7-[(2R,3R,4S,5R)-3,4-dihydroxy-5-[(sulfamoylamino)methyl]tetrahydrofuran-2-yl]-5-[2-(3-fluoro-2,5-dimethoxy-4-pyridyl)ethynyl]pyrrolo[2,3-d]pyrimidine] | 0.0056
10 | CCSc1ccccc1C#Cc1cn([C@@H]2O[C@H](CNS(N)(=O)=O)[C@@H](O)[C@H]2O)c2ncnc(N)c12 [Example 82, 4-Amino-7-[(2R,3R,4S,5R)-3,4-dihydroxy-5-[(sulfamoylamino)methyl]tetrahydrofuran-2-yl]-5-[2-(2-ethylsulfanylphenyl)ethynyl]pyrrolo[2,3-d]pyrimidine] | 0.01
11 | Nc1ncnc2c1c(C#Cc1cccc3c1S(=O)(=O)CCC3)cn2[C@@H]1O[C@H](CNS(N)(=O)=O)[C@@H](O)[C@H]1O [Example 83, 4-Amino-7-[(2R,3R,4S,5R)-3,4-dihydroxy-5-[(sulfamoylamino)methyl]tetrahydrofuran-2-yl]-5-[2-(1,1-dioxo-3,4-dihydro-2H-thiochromen-8-yl)ethynyl]pyrrolo[2,3-d]pyrimidine] | 0.019
12 | Nc1ncnc2c1c(C#Cc1c(F)cccc1S(N)(=O)=O)cn2[C@@H]1O[C@H](CNS(N)(=O)=O)[C@@H](O)[C@H]1O [Example 84, 2-[2-[4-Amino-7-[(2R,3R,4S,5R)-3,4-dihydroxy-5-[(sulfamoylamino)methyl]tetrahydrofuran-2-yl]pyrrolo[2,3-d]pyrimidin-5-yl]ethynyl]-3-fluoro-benzenesulfonamide] | 0.0097
13 | Nc1ncnc2c1c(C#Cc1c(F)cccc1OCC1CC1)cn2[C@@H]1O[C@H](CNS(N)(=O)=O)[C@@H](O)[C@H]1O [Example 86, 4-Amino-5-[2-[2-(cyclopropylmethoxy)-6-fluoro-phenyl]ethynyl]-7-[(2R,3R,4S,5R)-3,4-dihydroxy-5-[(sulfamoylamino)methyl]tetrahydrofuran-2-yl]pyrrolo[2,3-d]pyrimidine] | 0.0054
14 | Nc1ncnc2c1c(C#Cc1ncccc1F)cn2[C@@H]1O[C@H](CNS(N)(=O)=O)[C@@H](O)[C@H]1O [Example 88, 4-Amino-7-[(2R,3R,4S,5R)-3,4-dihydroxy-5-[(sulfamoylamino)methyl]tetrahydrofuran-2-yl]-5-[2-(3-fluoro-2-pyridyl)ethynyl]pyrrolo[2,3-d]pyrimidine] | 0.018
15 | CSc1ccccc1C#Cc1cn([C@@H]2O[C@H](CNS(N)(=O)=O)[C@@H](O)[C@H]2O)c2ncnc(N)c12 [Example 89, 4-Amino-7-[(2R,3R,4S,5R)-3,4-dihydroxy-5-[(sulfamoylamino)methyl]tetrahydrofuran-2-yl]-5-[2-(2-methylsulfanylphenyl)ethynyl]pyrrolo[2,3-d]pyrimidine] | 0.011
16 | Nc1ncnc2c1c(C#Cc1ccccc1S(N)(=O)=O)cn2[C@@H]1O[C@H](CNS(N)(=O)=O)[C@@H](O)[C@H]1O [Example 90, 2-[2-[4-Amino-7-[(2R,3R,4S,5R)-3,4-dihydroxy-5-[(sulfamoylamino)methyl]tetrahydrofuran-2-yl]pyrrolo[2,3-d]pyrimidin-5-yl]ethynyl]benzenesulfonamide] | 0.0056
17 | NC(=O)c1cccc(COc2ccc(C#Cc3cn([C@@H]4O[C@H](CNS(N)(=O)=O)[C@@H](O)[C@H]4O)c4ncnc(N)c34)cc2)c1 [Example 91, 3-[[4-[2-[4-Amino-7-[(2R,3R,4S,5R)-3,4-dihydroxy-5-[(sulfamoylamino)methyl]tetrahydrofuran-2-yl]pyrrolo[2,3-d]pyrimidin-5-yl]ethynyl]phenoxy]methyl]benzamide] | 0.018
18 | COc1cccc(OC)c1C#Cc1cn([C@@H]2C[C@H](CNS(N)(=O)=O)[C@@H](O)[C@H]2O)c2ncnc(N)c12 [Example 94, 4-Amino-7-[(1R,2S,3R,4R)-2,3-dihydroxy-4-[(sulfamoylamino)methyl]cyclopentyl]-5-[2-(2,6-dimethoxyphenyl)ethynyl]pyrrolo[2,3-d]pyrimidine] | 0.021
19 | COc1cccc(F)c1C#Cc1cn([C@@H]2C[C@H](CNS(N)(=O)=O)[C@@H](O)[C@H]2O)c2ncnc(N)c12 [Example 95, 4-Amino-7-[(1R,2S,3R,4R)-2,3-dihydroxy-4-[(sulfamoylamino)methyl]cyclopentyl]-5-[2-(2-fluoro-6-methoxy-phenyl)ethynyl]pyrrolo[2,3-d]pyrimidine] | 0.013
20 | Nc1ncnc2c1c(C#Cc1cccc3cccnc13)cn2[C@@H]1C[C@H](CNS(N)(=O)=O)[C@@H](O)[C@H]1O [Example 96, 8-[2-[4-Amino-7-[(1R,2S,3R,4R)-2,3-dihydroxy-4-[(sulfamoylamino)methyl]cyclopentyl]pyrrolo[2,3-d]pyrimidin-5-yl]ethynyl]quinoline] | 0.0092
21 | CSc1cccc(F)c1C#Cc1cn([C@@H]2C[C@H](CNS(N)(=O)=O)[C@@H](O)[C@H]2O)c2ncnc(N)c12 [Example 98, 4-Amino-7-[(1R,2S,3R,4R)-2,3-dihydroxy-4-[(sulfamoylamino)methyl]cyclopentyl]-5-[2-(2-fluoro-6-methylsulfanyl-phenyl)ethynyl]pyrrolo[2,3-d]pyrimidine] | 0.0083
22 | CCSc1cccc(F)c1C#Cc1cn([C@@H]2C[C@H](CNS(N)(=O)=O)[C@@H](O)[C@H]2O)c2ncnc(N)c12 [Example 99, 4-Amino-7-[(1R,2S,3R,4R)-2,3-dihydroxy-4-[(sulfamoylamino)methyl]cyclopentyl]-5-[2-(2-ethylsulfanyl-6-fluoro-phenyl)ethynyl]pyrrolo[2,3-d]pyrimidine] | 0.019
23 | Nc1ncnc2c1c(C#Cc1c(F)cc(N3CCOCC3)cc1F)cn2[C@@H]1C[C@H](CNS(N)(=O)=O)[C@@H](O)[C@H]1O [Example 101, 4-[4-[2-[4-amino-7-[(1R,2S,3R,4R)-2,3-dihydroxy-4-[(sulfamoylamino)methyl]cyclopentyl]pyrrolo[2,3-d]pyrimidin-5-yl]ethynyl]-3,5-difluoro-phenyl]morpholine] | 0.0076
24 | CN1CCN(c2cc(F)c(C#Cc3cn([C@@H]4C[C@H](CNS(N)(=O)=O)[C@@H](O)[C@H]4O)c4ncnc(N)c34)c(F)c2)CC1 [Example 103, 4-Amino-5-[2-[2,6-difluoro-4-(4-methylpiperazin-1-yl)phenyl]ethynyl]-7-[(1R,2S,3R,4R)-2,3-dihydroxy-4-[(sulfamoylamino)methyl]cyclopentyl]pyrrolo[2,3-d]pyrimidine] | 0.013
25 | Nc1ncnc2c1c(C#Cc1c(F)cc(OCn3cccn3)cc1F)cn2[C@@H]1C[C@H](CNS(N)(=O)=O)[C@@H](O)[C@H]1O [Example 104, 4-Amino-5-[2-[2,6-difluoro-4-(pyrazol-1-ylmethoxy)phenyl]ethynyl]-7-[(1R,2S,3R,4R)-2,3-dihydroxy-4-[(sulfamoylamino)methyl]cyclopentyl]pyrrolo[2,3-d]pyrimidine] | 0.0089
